This is an account of results in patent publication US9243037B2, “Gramicidin a mutants that function as antibiotics with improved solubility and reduced toxicity” (Trustees of Boston College, priority 2011, dated 2016).

Series [1] deals with Bacillus subtilis (ATCC 663). The note with it: for MIC relative to wild-type Gramicidin A: B. subtilis.
In series [2] the test system is Streptococcus pyogenes (ATCC 19615). The note with it: for MIC relative to wild-type Gramicidin A: S. Pyogenes.
Series [3] relates to Staphylococcus aureus (ATCC 6538). The note with it: for MIC relative to wild-type Gramicidin A: S. Aureus.
Series [4] has as its system human red blood cells (hRBCs). Description: K+ leakage from hRBCs (flame atomic emission). The class given is cell-based. The protocol:
The rest of supernatant (1.2 mL) from each sample prepared as described in the hemoglobin leakage assay was transferred into a new sterile eppendorf tube and subject to the K+ concentration measurement using a flame-atomic emission spectrometer (λem=766.5 nm, Perkin Elmer Atomic absorption Spectrometer 3100, acetylene/air flame). Three readings were taken for each sample and averaged as final results. The fraction of K+ leakage from hRBCs was calculated as percentage K+ leaked=100·(I776.5,peptide−I776.5,DMSO)/(I776.5,complete lysis−I776.5,DMSO).

A short description of series [5]: Tb3+ leakage from liposomes, lipid not specified. The class given is biochemical. Conditions: at peptide concentrations causing complete K+ release; in words.
The nature of series [6]: Peptide binding onto membranes (Trp fluorescence).
For series [7], the system named is human red blood cells (hRBCs). Description: Haemoglobin release from human red blood cells. The class given is cell-based. The protocol: Fresh human red blood cells (hRBCs) were centrifuged at 3500 rpm and washed with PBS buffer until the supernatant was clear. The hRBCs were then resuspended and diluted to a final concentration of 1% (v/v) in PBS and used immediately. 15 μL of serial dilution (2-fold) of peptides in DMSO or DMSO alone as a negative control were added to 1.5 mL of hRBCs in PBS. The resulting mixture was gently shaken to mix well and incubated at 37° C. for 1 hr, followed by centrifugation at 3500 rpm for 10 min using tabletop centrifuge. Aliquots (50 μL) of the supernatant (in triplicates) were transferred into a sterile 96-well plate containing 50 μL of H2O in each well. Release of hemoglobin was monitored at 415 nm using a microtiter plate reader. Percentage hemolysis was calculated using percentage hemolysis=100·(A415, peptide-A415,DMSO)/(A415, complete hemolysis-A415, DMSO), where complete hemolysis is achieved by mixing hRBCs with 1% TritonX-100.

Series [8] can be described thus: Peptide binding onto membranes (Trp fluorescence). Conditions: negatively charged POPC/POPG vesicles; in words.
Series [9] is described as follows: K+ release from liposomes, lipid not specified. The class given is biochemical. The note with it: in words. The protocol: With the D-Lys residues incorporated towards the C-terminus, the gA peptide analogs described herein display amphipathic sequences. Since many amphipathic peptides are known to cause membrane damage through a detergent-like mechanism instead of forming specific channels,[19] it was further examined whether it is the case with the gA peptide analogs provided herein. Toward this end, the ion selectivity of gA-3, 4, and 5 was assessed by using liposomes encapsulating K+ and Tb3+ respectively. […] The wild type like channel structure of the D-Lys mutants is further supported by the fact that gA-5 and gA-WT share similar signatures in their circular dichroism spectra (FIG. 11). This exclusive leakage of monovalent cations presents a great advantage of the gA analog peptides described herein in comparison to the majority of AMPs, which often cause catastrophic membrane collapse to release all bacterial cellular content, leading to potential complications of over-stimulated immune response.
The K+ leakage from liposomes was determined by a potassium ion selective electrode (K-ISE, Cole-Parmer, Vernon Hills, Ill.). The electrode was calibrated each day before experiments. A liposome solution in Buffer A (2 mL, 500 μM POPC or POPC/POPG⊃10 mM HEPES, 150 mM KCl, pH 7.0) was stirred at constant speed and peptide at various concentration (1 μL in DMSO) was added accumulatively. Three minutes after each peptide addition, the K+ concentration was measured and reported as the K-ISE potential. At the end of each experiment, gA-WT stock (1 μL, 1 mM) was added to induce 100% K+ leakage. The potential reported by the K-ISE was plotted against peptide concentration after the background noise (caused by DMSO addition) was subtracted and normalized to 0-100%.

A short description of a further series: physchem. The class given is physicochemical. The method, then: Peptide solubility in 10 mM HEPES buffer with 1% DMSO was measured by monitoring tryptophan absorbance. A concentrated (6.0-8.0 mM) peptide stock solution in DMSO was diluted 100 times (5 μL of the stock into 500 jtl of 10 mM HEPES buffer, pH 7.0). The mixture was sonicated for 30 mins and then subject to centrifugation (14,000 rpm, 10 mins) to remove possible precipitate. The supernatant (400 μL) was transferred to a quartz cuvette and the peptide concentration was determined by tryptophan absorbance at 280 nm (ε=22760 M−1 cm-1). The UV/Vis spectra of the supernatant can be seen in FIG. 1 and FIG. 5.

The conditions of series [10]: cited from earlier work; for Sat. Conc, Lys series: Trp absorbance @ 280 nm, 10 mM PBS, pH 7.0, 1% DMSO, values taken from ref.
The test system of the next series is MCF-7. The series is described as follows: MTT toxicity assay. The class given is cell-based, human. Conditions: MCF-7; in words. The method, then: (§1) Toxicity of gA-WT and gA-5 was tested against two human cancer cell lines, HeLa and MCF-7 (gifts from Professor Eranthie Weerapana at Boston College) by using the MTT assay as described in the protocol provided by Invitrogen.[5] HeLa cells (in DMEM high glucose media with 10% FBS, 1% Pen/Strep, 37° C., 5% CO2) and MCF-7 cells (in RPMI media with 10% FBS and 1% Pen/Strep, 37° C., 5% CO2) were grown to about 80% confluent before removed from the surface of a 20 cm petri-dish with […] with EDTA (3-5 mins, 37° C., 5% CO2). Cells were pelleted (3,500 rpm, 5 mins at 4° C.), and plated at 15,000 cells per well (100 μL per well), then incubated for 48 hrs before peptide addition.
(§2) Stock solutions of gA in DMSO with varied concentrations were prepared so that for each peptide concentration the total volume of DMSO addition was kept constant at 1% (v/v). For each peptide concentration, samples were set up as four replicates. Control wells were loaded with 1 μL of DMSO. After overnight incubation, cells were washed once with PBS before being incubated for 4 hrs with 110 μL of 12 mM 3-(4,5-Dimethylthiazol-2-yl)-2,5-diphenyltetrazolium bromide (MTT) dissolved in RPMI media. The MTT assay was quenched with 100 μL of 10% SDS in 0.01 M HCl and allowed to incubate overnight before absorbance at 570 nm was recorded. Wells were averaged and standard deviations determined for each peptide concentration. Data were normalized to the DMSO control to give % cell survival (see FIG. 3).

The next series deals with HeLa. The series is described as follows: MTT toxicity assay. The class given is cell-based, human. Conditions: HeLa; in words. The method, then: as §1, §2
On the technique in general: Tetrazolium dyes change colour on reduction, which living cells bring about.

Where [11] appears, read: Table 2, standard micro-dilution.

Entries after “also recorded” stand apart in the source; their conditions may differ. Where two headings read alike, the source gives them in different places.

In the case of `CC(C)C[C@@H](NC(=O)[C@H](C)NC(=O)CNC(=O)[C@@H](NC=O)C(C)C)C(=O)N[C@@H](C)C(=O)N[C@@H](C(=O)N[C@H](C(=O)N[C@@H](C(=O)N[C@@H](Cc1c[nH]c2ccccc12)C(=O)N[C@H](CCCCN)C(=O)N[C@@H](Cc1c[nH]c2ccccc12)C(=O)N[C@H](CC(C)C)C(=O)N[C@@H](Cc1c[nH]c2ccccc12)C(=O)N[C@H](CCCCN)C(=O)N[C@@H](Cc1c[nH]c2ccccc12)C(=O)NCCO)C(C)C)C(C)C)C(C)C` (racemic) [gA-3, formyl-V-G-A-dL-A-dV-V-dV-W-dK-W-dL-W-dK-W-NHCH2CH2OH], in series [1] (ATCC 663), the “MICs B. Subtilius” value worked out at 5 µM. Further, the “MIC relative to wild-type Gramicidin A” value in series [1], in series [2] and in [3] was approximately 2 fold in each case. In addition, in [2] (ATCC 19615), the “MICs S. Pyogenes” value came to 0.32 µM. The “MICs S. Aureus” value in [3] (ATCC 6538) turned out to be 5 µM. Moreover, the “KC50 (50% K+ ion leakage relative to 1% TritonX-100)” value in series [4] is given as 5~10 μM. In series [4], the “peptide concentration for 50% K+ ion leakage, fold greater than wild-type Gramicidin A” value is “greater than 10^5 fold”. Further, the “Tb3+ leakage from LUVs” value in series [5] is recorded as “essentially no Tb3+ leakage; also recorded: behave similarly to gA-5”. Further, the “reduced affinity to POPC vesicles” value in series [6] is recorded as approximately 70 folds. Further, in series [7], the “haemoglobin leakage from hRBCs” value is “not enough to cause 50% haemoglobin leakage”. Further, the “HC50 (50% haemoglobin leakage relative to 1% TritonX-100)” value in [7] (red cells of human) was more than 70 µM. Also, in [8], the “apparent dissociation constant (Kd) / binding” value was “comparable to that of gA-WT”. Besides, in series [9], the “K+ release from LUVs” value is “potent activity in K+ release”. In addition, in the series “physchem”, the “water solubility, fold higher than wild-type Gramicidin A” value was approximately 740 fold. The “Sat. Conc, Lys series” value in [10] is 38 µM.
As to `CC(C)C[C@@H](NC(=O)[C@H](C)NC(=O)CNC(=O)[C@@H](NC=O)C(C)C)C(=O)N[C@@H](C)C(=O)N[C@@H](C(=O)N[C@H](C(=O)N[C@@H](C(=O)N[C@@H](Cc1c[nH]c2ccccc12)C(=O)N[C@H](CCCCN)C(=O)N[C@@H](Cc1c[nH]c2ccccc12)C(=O)N[C@H](CCCCN)C(=O)N[C@@H](Cc1c[nH]c2ccccc12)C(=O)N[C@H](CC(C)C)C(=O)N[C@@H](Cc1c[nH]c2ccccc12)C(=O)NCCO)C(C)C)C(C)C)C(C)C` (racemic) [gA-4, formyl-V-G-A-dL-A-dV-V-dV-W-dK-W-dK-W-dL-W-NHCH2CH2OH], in [1] (ATCC 663), the “MICs B. Subtilius” value worked out at 2.5 µM. The “MIC relative to wild-type Gramicidin A” value in [1], in [2] and in series [3] was “equivalent to or ˜2-fold higher” in each case. Moreover, the “MICs S. Pyogenes” value in series [2] (ATCC 19615) worked out at 0.16 µM. The “MICs S. Aureus” value in series [3] (ATCC 6538) amounted to 5 µM. Further, the “KC50 (50% K+ ion leakage relative to 1% TritonX-100)” value in [4] was 5~10 μM. Besides, in [4], the “peptide concentration for 50% K+ ion leakage, fold greater than wild-type Gramicidin A” value is given as “over 10^5 fold”. The “Tb3+ leakage from LUVs” value in [5] is “essentially no Tb3+ leakage; also recorded: behave similarly to gA-5”. In addition, in series [6], the “reduced affinity to POPC vesicles” value is reported as approximately 70 folds. Also, the “haemoglobin leakage from hRBCs” value in series [7] is “not enough to cause 50% haemoglobin leakage”. Moreover, the “HC50 (50% haemoglobin leakage relative to 1% TritonX-100)” value in series [7] (red cells of human) was more than 100 µM. Further, in series [8], the “apparent dissociation constant (Kd) / binding” value is listed as “comparable to that of gA-WT”. Further, the “K+ release from LUVs” value in [9] was “potent activity in K+ release”. The “water solubility, fold higher than wild-type Gramicidin A” value in “physchem” is approximately 740 fold. Moreover, the “Sat. Conc, Lys series” value in [10] was 39 µM.
In the case of `CC(C)C[C@@H](NC(=O)[C@H](C)NC(=O)CNC(=O)[C@@H](NC=O)C(C)C)C(=O)N[C@@H](C)C(=O)N[C@@H](C(=O)N[C@H](C(=O)N[C@@H](C(=O)N[C@@H](Cc1c[nH]c2ccccc12)C(=O)N[C@H](CC(C)C)C(=O)N[C@@H](Cc1c[nH]c2ccccc12)C(=O)N[C@H](CC(C)C)C(=O)N[C@@H](Cc1c[nH]c2ccccc12)C(=O)N[C@H](CC(C)C)C(=O)N[C@@H](Cc1c[nH]c2ccccc12)C(=O)NCCO)C(C)C)C(C)C)C(C)C` (racemic) [gA-WT, formyl-V-G-A-dL-A-dV-V-dV-W-dL-W-dL-W-dL-W-NHCH2CH2OH, reference compound], the “MICs B. Subtilius” value in series [1] (setting [11]) is 2.5 µM. For the same compound, the “Minimum Inhibition Concentration B. Subtilius” value in series [1] (Table 6) was determined as 2.5 µM. Moreover, the “MICs S. Pyogenes” value in [2] (setting [11]) stood at 0.16 µM. The “Minimum Inhibition Concentration S. Pyogenesis” value in [2] (Table 6) came out at 0.16 µM. Moreover, in [3] (setting [11]), the “MICs S. Aureus” value came to 2.5 µM. The “Minimum Inhibition Concentration S. Aureus” value in series [3] (Table 6) was 2.5 µM. Further, the “KC50 (50% K+ ion leakage relative to 1% TritonX-100)” value in series [4] (Table 2, hRBCs) was determined as 0.00014 µM. In [4] (Table 6, hRBCs, preliminary), the “Toxicity KC50” value stood at 0.00014 µM. Further, the KC50 in series [4] (hRBCs) is 140 pM. Moreover, in series [7] (Table 2, hRBCs), the “HC50 (50% haemoglobin leakage relative to 1% TritonX-100)” value was determined as 5 µM. For the same compound, in series [7] (Table 6, hRBCs, preliminary), the “Toxicity HC50” value is 5 µM. Further, the HC50 in series [7] (Table 8) was determined as 5. Also, the solubility in water in [10] (wild type, from reference [8]) was less than 0.05 µM. The “toxicity, cell survival (MTT)” value in the series with MCF-7 and in the series with HeLa was “low μM potency” in each case.
